According to patent publication EP4019580A1, “REDUCTION OF FLUORINATED ACID IN FLUOROPOLYMERS” (3M Innovative Properties Company, priority 2020, dated 2022):

How the values were obtained:
[1] = Cryogenic grinding of perfluorinated elastomers (Spex mill), MeOH extraction and LC/MS determination of perfluorinated carboxylic acids; assay type: physicochemical; conditions: 10 wt.-% BHT versus no radical scavenger
Excerpt: (§1) The general procedures described in "3M Standard Method for PFAS in Articles of Commerce, Edition 1, 02 June 2020", including the test and analytical equipment, was followed. The disclosure of this document is incorporated herein by reference in its entirety. In particular, reference is made with regard to the experimental and analytical setup and methods used in the present disclosure to the chapter "Part 3: Instrumental Analysis", 3.1.1 "Analytical Equipment and Materials" as well as 3.1.2 "HPLC Conditions (exemplary)".
(§2) The submitted samples were dissolved in methanol prior to analysis. Standard solutions were prepared from an aqueous solution of Adona that was determined to have a concentration of 28.36% by NMR.
In this study the inhibition effect of radical scavengers on the generation of perfluorinated carboxylic acids during cryogenic grinding of PFE and PFE compounds was investigated. As example 1, PTFE 191 plus 10 wt.-% BHT as radical scavenger was used. The amount of BHT was added as a powder to the gum in the milling container. Comparative Example 1 was PTFE 191 without BHT or any other radical scavengers. […]
The perfluorinated carboxylic acids were determined by extraction of the grinded material with MeOH and subsequent LC/MS measurements. […]

[2] = Cryogenic grinding of crystalline perfluorinated polymers on the Spex mill, MeOH extraction and LC/MS determination of perfluorinated carboxylic acids; assay type: physicochemical; conditions: 10 wt.-% BHT versus no radical scavenger
Excerpt: as §1, §2
In this study the inhibition effect of radical scavengers on the generation of perfluorinated carboxylic acids during cryogenic grinding of crystalline fluoropolymers was investigated. The polymers were grinded on a Spex or Retsch mill under the addition of BHT (2,6-Di-tert-butyl-4-methylphenol; CAS 128-37-0). The BHT was added as a powder to the polymer in the milling tube. Table 3. Milling conditions.
Perfluorinated carboxylic acids were extracted with MeOH and determined by LC/MS measurements as published in the 3M Standard test method for the determination of PFOA in articles of commerce. […]

SMILES: Cc1cc(C(C)(C)C)c(O)c(C(C)(C)C)c1 [BHT, 2,6-Di-tert-butyl-4-methylphenol]
- lowers the PFOA formation [1]: within three orders of magnitude
- formation of C3-C7 Perfluorocarboxylic acids is reduced by a factor of [2]: 18
